Measured values taken from patent US20230405000A1, “TABLET FOR USE IN TREATING HUNTINGTON'S DISEASE AND METHOD OF MAKING THE SAME” (PTC THERAPEUTICS, INC., priority 2020, published 2023).
Entries after “also recorded” stand apart in the source; their conditions may differ.

Columns and labels:
Rat toxicology (NOAEL) = assay type: in vivo; settings: male rats
Method: The initial dose in the first cohort was ≥ 1/10 of the human equivalent dose (HED) estimated from the NOAEL (no observed adverse effect level) of the (male) rat, which is the most sensitive species, following the FDA guidance on the maximum recommended starting dose (MRSD) and EMA guidelines. The NOAEL of the rat is 6 mg/kg. […] The HED of 0.97 mg/kg was calculated; this scaled in a 70 kg human to 68 mg. Adjusting this dose to 1/10, the dose of the first cohort was 6.8; the actual administered dose will be 5 mg.

human HTT = assay: Transgenic mouse models of Huntington's disease; assay type: in vivo
Excerpt: An international application published as WO2020/005873 identified a genus of compounds that can be used in the treatment of HD, methods of making the same and pharmaceutical formulations of the same. […] At present, only symptomatic treatments are available. Thus, to date, there is no small molecule therapy available to slow the progression of HD. Accordingly, there is a need for small molecule disease-modifying therapies for HD (i.e. therapeutic options that can slow disease progression).
At the selected doses of 10 mg QD and 20 mg QD, the predicted percent full-length HTT mRNA decreases are within the target range of 30 to 50% reduction from baseline. […] Therefore, the observed preclinical HTT mRNA changes are anticipated to result in similar decreases in HTT protein levels in HD patients. Thus, based upon the totality of the clinical and preclinical safety data to date, and the anticipated reduction in HTT mRNA and protein derived from clinical data and pharmacokinetic-pharmacodynamic modeling, the doses of 10 mg and 20 mg are expected to be safe, well tolerated, and beneficial to subjects with HD.

[1] = Phase 1 study: safety and tolerability in healthy subjects; assay type: in vivo, human
Method: Phase 1 Dose Escalation Study was initiated to assess the safety and pharmacokinetics of Compound 1 Oral Tablets (5 mg and 50 mg) compared to placebo in healthy subjects.
(i) To characterize the safety and tolerability of single ascending doses of Compound 1 in healthy subjects; (ii) To characterize the safety and tolerability of Compound 1 administered for 14 or up to 21 days in healthy subjects; (iii) To characterize the pharmacokinetics in plasma and cerebrospinal fluid (CSF) after administration of Compound 1 for 7 days in healthy subjects; (iv) To characterize the food effect on the pharmacokinetics (PK) in plasma of Compound 1 after administration of a single dose of Compound 1 in healthy subjects; and, (v) To characterize the safety and tolerability of Compound 1 administered for up to 28 days in healthy subjects.
The study was monitored by a Safety Review Committee (SRC). […] Safety and tolerability was assessed by the SRC between each cohort prior to ascending from one dose level to the next higher dose level in Part 1 (single ascending dose [SAD]) and fart 2 (multiple ascending dose [MAD]), and prior to initiating Part 3 (CSF), Part 4 (FE), and Part 5.
The following parameters were defined as parameters regarding safety and tolerability: […]
Change from baseline to each scheduled time point up to EOS for vital signs; Change from baseline to each scheduled time point up to EOS for ECG parameters; Change from baseline to each scheduled time point up to EOS for clinical laboratory tests; Changes from baseline in C-SSRS scores (Part 2, Part 3, and Part 5 only); Treatment-emergent adverse events (AEs) up to EOS; Treatment-emergent AEs leading to premature discontinuation of study drug; Treatment-emergent serious adverse events (SAEs) up to FOS; and, Abnormalities in physical examination.

HTT mRNA = assay: Phase 1 study: HTT mRNA in whole blood of healthy volunteers (RT-PCR); assay type: in vivo, human
Excerpt: (i) To explore the effect of single dose of Compound 1 administered on huntingtin (HTT) premRNA splicing in the blood of healthy subjects; (i) To explore the effect of Compound 1 administered for 14 or up to 21 days on HTT pre-m RNA splicing and HTT protein levels in the blood of healthy subjects; (ii) To explore the effect of single dose of Compound 1 administered (with food) on HTT pre-mRNA splicing in the blood of healthy subjects; and, (iii) To explore the effect of Compound 1 administered for up to 28 days on HTT premRNA splicing and HTT protein levels in the blood of healthy subjects.
The single ascending dose (SAD) part of the study was randomized, double-blinded, and placebo controlled in healthy male and female subjects.
The multiple ascending (MAD) part of the study was randomized, double-blind, and placebo controlled in healthy male and female subjects. Up to five regimens are planned to be tested in up to 5 cohorts of 8 subjects each (Cohort 2.1 to 2.5). Within each cohort, 6 subjects were to receive Compound 1 and 2 subjects were to receive placebo. Subjects in Cohort 2.1 and 2.2 were to be dosed for 14 days, subjects in Cohort 2.3 to 2.5 were to be dosed for up to 21 days.
The amount of HTT mRNA was then evaluated by RT-PCR 6 hours after administration of Compound 1 on day 14.
Results from measurement of HTT RNA in the whole blood of human subject administered a placebo or 15 or 30 mg of Compound 1, as described in the Multiple Ascending Dose (MAD) study above are illustrated in FIG. 15. HTT splicing was monitored after the final dose at day 14, calculated as % HTT remaining from baseline (pre-dose day 0).

[2] = Phase 1 study: Compound 1 levels in CSF compared with plasma; assay type: in vivo, human
Excerpt: The concentrations of Compound 1 in plasma and CSF were to be assessed in an open-label design in healthy male and female subjects. A single dose of Compound 1 was to be administered daily for 7 days in 1 cohort of 6 subjects (Cohort 3.1) The dose level of Part 3 was to be determined based upon a review of the safety, tolerability, and PK data of Part 1 and Part 2 of the study. While the MAD dose was to be determined further in development, that dose and schedule was to be applied to this part of the study.
Eligibility was to be assessed during a screening period of up to 28 days. Subjects were to check into the clinic 1 day before dosing (Day −1). On the morning of Day 1 to Day 7, Compound 1 was to be orally administered after an overnight fast of at least 10 hours each day. Serial sampling of CSF and sampling of plasma for drug concentrations was to be performed on Day 7 The exact timing of the CSF and blood samples was to be determined based on the results of Part 1 and Part 2. Subjects were to be released from the clinic on Day 9 after all required study procedures are completed and if medically appropriate. A follow-up safety phone call was to occur 4 weeks (±1 week) after discharge on Day 9.
The CSF sampling enabled the evaluation of pharmacokinetics of Compound 1 in the CSF wherein Compound 1 levels in the CSF were compared with Compound 1 levels in plasma. […] The food effect portion enabled the evaluation of pharmacokinetics of Compound 1 in plasma after administration of a single dose of Compound 1 in healthy subjects.

[3] = Compound 1 in CSF and free plasma of non human primates; assay type: in vivo
Method: The two subjects in this cohort received 30 mg daily dose.

With `CC1(C)CC(n2nnc3cc(-c4ccc(-n5nccn5)cc4O)nnc32)CC(C)(C)N1` [Compound 1, 2-[3-(2,2,6,6-tetramethylpiperidin-4-yl)-3H-[1,2,3]triazolo[4,5-c]pyridazin-6-yl]-5-(2H-1,2,3-triazol-2-yl)phenol] as the compound, how does the “observation that set the NOAEL” value (Rat toxicology (NOAEL)) read?
Its value is “germ cell exfoliation in epididymis and testes”.

And the “relation of HTT pre-mRNA splicing to protein lowering” value (human HTT; bacterial artificial chromosome transgenic mouse model of HD)?
The value was “strong correlation between levels of HTT pre-mRNA splicing and the degree of protein lowering”.

And the “reduction of human HTT production in vivo” value (human HTT; transgenic mouse models of Huntington's disease, results not yet published)?
Its value is “effective in reducing human HTT production in vivo”.

What about the “overall incidence of AEs” value ([1]; SAD and MAD portions, versus placebo) of the same compound?
The value was “comparable between subjects who received placebo and those who received Compound 1”.

What about the “laboratory abnormalities or ECG findings” value ([1]; any dose, SAD and MAD portions) of the same compound?
Its value is “no clinically significant laboratory abnormalities or electrocardiogram (ECG) findings”.

What about the safety and tolerability ([1]; healthy subjects, single doses 5 mg to 135 mg, multiple doses 15 mg and 30 mg up to 21 days) of the same compound?
The safety and tolerability was “well-tolerated with no safety-related findings; also recorded: safe and generally well tolerated”.

What about the “lowering of HTT mRNA in whole blood” value (HTT mRNA; MAD cohort, 15 mg or 30 mg for 14 days, 6 hours after dose on day 14) of the same compound?
The value was “dose-dependent lowering”.

And the “time of treatment until HTT mRNA levels reached steady state” value (HTT mRNA; Multiple Ascending Dose Study)?
Its value is 4 to 5 days.

And the “lowering of HTT mRNA in whole blood” value (HTT mRNA; SAD cohort, 24 hours after single dose of 5, 15, 45, 90 or 135 mg)?
The value was “dose-dependent lowering”.

What about the “Compound 1 levels in the CSF compared with plasma” value ([2]; healthy subjects, 30 mg daily dose) of the same compound?
Its value is “equal to or greater than levels observed in plasma; also recorded: at least equivalent or greater than levels observed in the plasma”.

What about the “blood brain barrier penetration” value ([2]; humans) of the same compound?
The value was “crossed the blood brain barrier”.

What about the efflux ([2]; humans) of the same compound?
Its efflux is “not subject to efflux”.

What about the “blood brain barrier penetration” value [3] of the same compound?
The value was “crosses the Blood Brain Barrier”.
